Source: PubChem BioAssay (NCI)
Where “and” joins values, the source holds several entries; their conditions need not be identical. Equal values may be shown once.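 Method: 48-hour compound exposure of cells in 96-well plates, five concentrations, linear interpolation of endpoints. GI50 is the concentration that inhibits growth by half. TGI: concentration producing complete growth inhibition.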

Key:
Assay in all cases: NCI tumour cell line growth inhibition, 48 h
SN12C renal = test system: SN12C renal
SR leukemia = test system: SR leukemia
TK-10 renal = test system: TK-10 renal
HT29 colon = test system: HT29 colon
SK-MEL-2 melanoma = test system: SK-MEL-2 melanoma
LOX IMVI melanoma = test system: LOX IMVI melanoma
SK-OV-3 ovarian = test system: SK-OV-3 ovarian
MALME-3M melanoma = test system: MALME-3M melanoma
HCC-2998 colon = test system: HCC-2998 colon
SF-268 CNS = test system: SF-268 CNS
A498 renal = test system: A498 renal
NCI-H226 lung = test system: NCI-H226 lung
A549 NSCLC = test system: A549 NSCLC
U251 CNS = test system: U251 CNS
HCT-15 colon = test system: HCT-15 colon
HCT-116 colon = test system: HCT-116 colon
NCI-H460 lung = test system: NCI-H460 lung
UACC-257 melanoma = test system: UACC-257 melanoma
OVCAR-5 ovarian = test system: OVCAR-5 ovarian
SF-539 CNS = test system: SF-539 CNS
SW-620 colon = test system: SW-620 colon
786-0 renal = test system: 786-0 renal
MDA-N = test system: MDA-N
ACHN renal = test system: ACHN renal
HS 578T breast = test system: HS 578T breast
NCI-H23 lung = test system: NCI-H23 lung
CAKI-1 renal = test system: CAKI-1 renal
HL-60(TB) leukemia = test system: HL-60(TB) leukemia
CCRF-CEM leukemia = test system: CCRF-CEM leukemia
SNB-19 CNS = test system: SNB-19 CNS
PC-3 prostate = test system: PC-3 prostate
KM12 colon = test system: KM12 colon
SNB-75 CNS = test system: SNB-75 CNS
HOP-92 NSCLC = test system: HOP-92 NSCLC
RPMI-8226 leukemia = test system: RPMI-8226 leukemia
SK-MEL-5 melanoma = test system: SK-MEL-5 melanoma
MCF7 breast = test system: MCF7 breast
M14 melanoma = test system: M14 melanoma
MDA-MB-231 breast = test system: MDA-MB-231 breast
OVCAR-4 ovarian = test system: OVCAR-4 ovarian
EKVX NSCLC = test system: EKVX NSCLC
SF-295 CNS = test system: SF-295 CNS
OVCAR-8 ovarian = test system: OVCAR-8 ovarian
RXF 393 renal = test system: RXF 393 renal
NCI/ADR-RES ovarian = test system: NCI/ADR-RES ovarian
K-562 leukemia = test system: K-562 leukemia
HOP-62 NSCLC = test system: HOP-62 NSCLC
SK-MEL-28 melanoma = test system: SK-MEL-28 melanoma
UACC-62 melanoma = test system: UACC-62 melanoma
MDA-MB-435 = test system: MDA-MB-435
BT-549 breast = test system: BT-549 breast
UO-31 renal = test system: UO-31 renal
COLO 205 colon = test system: COLO 205 colon
DU-145 prostate = test system: DU-145 prostate
OVCAR-3 ovarian = test system: OVCAR-3 ovarian
IGROV1 ovarian = test system: IGROV1 ovarian
T-47D breast = test system: T-47D breast
MOLT-4 leukemia = test system: MOLT-4 leukemia
NCI-H522 lung = test system: NCI-H522 lung

## CCOP(=O)(OCC)C(C)(CC)NC(=O)C(C(F)(F)F)C(F)(F)F (configuration not stated)
SN12C renal
  TGI: > 100 µM
SR leukemia
  TGI: > 100 µM
TK-10 renal
  TGI: > 100 µM
HT29 colon
  TGI: > 100 µM
SK-MEL-2 melanoma
  TGI: > 100 µM
LOX IMVI melanoma
  TGI: > 100 µM
SK-OV-3 ovarian
  TGI: > 100 µM
MALME-3M melanoma
  TGI: > 100 µM
HCC-2998 colon
  TGI: > 100 µM
SF-268 CNS
  TGI: > 100 µM
A498 renal
  TGI: > 100 µM
NCI-H226 lung
  TGI: > 100 µM
A549 NSCLC
  TGI: > 100 µM
U251 CNS
  TGI: > 100 µM
HCT-15 colon
  TGI: > 100 µM
HCT-116 colon
  TGI: > 100 µM
NCI-H460 lung
  TGI: > 100 µM
UACC-257 melanoma
  TGI: > 100 µM
OVCAR-5 ovarian
  TGI: > 100 µM
SF-539 CNS
  GI50: 48.1 µM and > 100 µM
  TGI: > 100 µM
SW-620 colon
  TGI: > 100 µM
786-0 renal
  TGI: > 100 µM
MDA-N
  TGI: > 100 µM
ACHN renal
  TGI: > 100 µM
HS 578T breast
  TGI: > 100 µM
NCI-H23 lung
  TGI: > 100 µM
CAKI-1 renal
  TGI: > 100 µM
HL-60(TB) leukemia
  GI50: 25.8 µM
  TGI: 64.6 µM
CCRF-CEM leukemia
  TGI: 48.7 µM and 53.1 µM
SNB-19 CNS
  TGI: > 100 µM
PC-3 prostate
  TGI: > 100 µM
KM12 colon
  TGI: > 100 µM
SNB-75 CNS
  GI50: > 71.6 µM
  TGI: > 100 µM
HOP-92 NSCLC
  TGI: > 100 µM
RPMI-8226 leukemia
  TGI: > 81.6 µM and 59.7 µM
SK-MEL-5 melanoma
  TGI: > 100 µM
MCF7 breast
  TGI: > 100 µM
M14 melanoma
  TGI: > 100 µM
MDA-MB-231 breast
  GI50: > 100 µM
  TGI: > 100 µM
OVCAR-4 ovarian
  TGI: > 100 µM
EKVX NSCLC
  TGI: > 100 µM
SF-295 CNS
  TGI: > 100 µM
OVCAR-8 ovarian
  TGI: > 100 µM
RXF 393 renal
  TGI: > 100 µM
NCI/ADR-RES ovarian
  TGI: > 100 µM
K-562 leukemia
  GI50: 18.6 µM and 39.1 µM
  TGI: > 100 µM
HOP-62 NSCLC
  TGI: > 100 µM
SK-MEL-28 melanoma
  TGI: > 100 µM
UACC-62 melanoma
  GI50: > 100 µM
  TGI: > 100 µM
MDA-MB-435
  TGI: > 100 µM
BT-549 breast
  GI50: 19.3 µM and 3.87 µM
  TGI: 99.7 µM and > 100 µM
UO-31 renal
  TGI: > 100 µM
COLO 205 colon
  TGI: > 100 µM
DU-145 prostate
  TGI: > 100 µM
OVCAR-3 ovarian
  TGI: > 100 µM
IGROV1 ovarian
  TGI: > 100 µM
T-47D breast
  GI50: > 51.5 µM and 21.1 µM
  TGI: > 100 µM and 99.7 µM
MOLT-4 leukemia
  TGI: > 100 µM

## Cc1ccc(S(=O)(=O)n2cc(C#N)c(C#N)c2)cc1
SN12C renal
  TGI: 69.1 µM
SR leukemia
  TGI: 71 µM
TK-10 renal
  TGI: > 100 µM
HT29 colon
  TGI: 65.9 µM
SK-MEL-2 melanoma
  TGI: 52 µM
LOX IMVI melanoma
  TGI: 52.1 µM
SK-OV-3 ovarian
  TGI: 91.9 µM
MALME-3M melanoma
  TGI: 33.9 µM
HCC-2998 colon
  TGI: 48.2 µM
SF-268 CNS
  TGI: 69.2 µM
A498 renal
  TGI: 71.9 µM
A549 NSCLC
  TGI: 78.9 µM
U251 CNS
  TGI: > 100 µM
HCT-15 colon
  TGI: 59 µM
HCT-116 colon
  TGI: > 100 µM
NCI-H460 lung
  TGI: > 100 µM
UACC-257 melanoma
  TGI: > 100 µM
OVCAR-5 ovarian
  TGI: 81.2 µM
SF-539 CNS
  TGI: 39.9 µM
SW-620 colon
  TGI: 80 µM
786-0 renal
  TGI: > 100 µM
MDA-N
  TGI: 70.7 µM
ACHN renal
  TGI: 40.7 µM
HS 578T breast
  TGI: 61.4 µM
NCI-H23 lung
  TGI: 91.3 µM
CAKI-1 renal
  TGI: 59.1 µM
HL-60(TB) leukemia
  TGI: 71.6 µM
CCRF-CEM leukemia
  TGI: 92.1 µM
PC-3 prostate
  TGI: 85 µM
KM12 colon
  TGI: > 100 µM
SNB-75 CNS
  TGI: > 100 µM
HOP-92 NSCLC
  TGI: 88 µM
SK-MEL-5 melanoma
  TGI: 42 µM
MCF7 breast
  TGI: 48.2 µM
M14 melanoma
  TGI: 47.7 µM
MDA-MB-231 breast
  TGI: > 100 µM
OVCAR-4 ovarian
  TGI: > 100 µM
EKVX NSCLC
  TGI: > 100 µM
SF-295 CNS
  TGI: 61.6 µM
OVCAR-8 ovarian
  TGI: > 100 µM
RXF 393 renal
  TGI: 94.3 µM
NCI/ADR-RES ovarian
  TGI: > 100 µM
K-562 leukemia
  TGI: > 100 µM
HOP-62 NSCLC
  TGI: 68.8 µM
SK-MEL-28 melanoma
  TGI: 30.8 µM
NCI-H522 lung
  TGI: 40 µM
UACC-62 melanoma
  TGI: 33.7 µM
MDA-MB-435
  TGI: 45.6 µM
BT-549 breast
  TGI: 45.2 µM
UO-31 renal
  TGI: 72.2 µM
COLO 205 colon
  TGI: 68.2 µM
DU-145 prostate
  TGI: > 100 µM
OVCAR-3 ovarian
  TGI: 46.2 µM
IGROV1 ovarian
  TGI: > 100 µM
T-47D breast
  TGI: 72.4 µM
MOLT-4 leukemia
  TGI: > 100 µM
